# Assay results reported in paper PMC7304060, “Broad Spectrum Deubiquitinase Inhibition Induces Both Apoptosis and Ferroptosis in Cancer Cells” (Frontiers in Oncology, 2020).
# Peptide text beside a SMILES is read from it.
# Target: T1, 20S proteasome (chymotrypsin-like peptidase) (Homo sapiens, UniProt P28074)
# T1 construct: gene PSMB5; purified human 20S proteasome; chymotrypsin-like site (beta5, with beta6 contact)
# T1 sequence (P28074 60-263): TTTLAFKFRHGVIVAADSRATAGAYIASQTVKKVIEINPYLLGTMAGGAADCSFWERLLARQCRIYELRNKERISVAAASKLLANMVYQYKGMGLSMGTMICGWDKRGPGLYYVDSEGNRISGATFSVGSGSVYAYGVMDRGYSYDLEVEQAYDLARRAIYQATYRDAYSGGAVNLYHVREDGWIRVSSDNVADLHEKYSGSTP
# T1 sequence (P20618 29-241 partner): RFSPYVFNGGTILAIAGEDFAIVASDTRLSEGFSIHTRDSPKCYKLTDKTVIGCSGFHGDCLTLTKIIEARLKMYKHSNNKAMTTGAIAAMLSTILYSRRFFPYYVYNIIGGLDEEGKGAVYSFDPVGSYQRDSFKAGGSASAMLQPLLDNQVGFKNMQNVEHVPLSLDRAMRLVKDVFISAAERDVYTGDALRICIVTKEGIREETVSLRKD
# Test: fluorogenic peptidase assay
# Type: biochemical
# Settings: 37 °C; chymotrypsin-like site
structure (smiles),measurement,value
"Cc1cc(=O)oc2cc(NC(=O)[C@H](Cc3ccc(O)cc3)NC(=O)[C@@H](NC(=O)[C@H](CC(C)C)NC(=O)[C@H](CC(C)C)NC(=O)CCC(=O)O)C(C)C)ccc12 [Suc-LLVY-AMC, Suc-Leu-Leu-Val-Tyr-aminomethylcoumarin] (HELM PEPTIDE1{[O=C(O)CCC(=O)[*:2]].L.L.V.Y.[Cc1cc(=O)oc2cc(N[*:1])ccc12]}$$$$V2.0)",fluorogenic peptidase assay,Chymotrypsin-like activity of the proteasome was assessed with fluorogenic Suc-LLVY-AMC substrate
